Entries after “also recorded” stand apart in the source; their conditions may differ.

Common to all, as to assay type: cell-based, human
Test [1] has as its system CD138neg MM progenitors derived from primary clinical specimens. Nature of the test: Clonogenic recovery of CD138neg MM progenitors from primary clinical samples. The conditions noted are these: 4 MM patients; FIG. 10C; P>0.2 compared to the untreated control.
Test [2] deals with clonogenic MM cells. The test is described as follows: In vitro clonogenic growth of MM precursors (summary statements). The conditions noted are these: summary statement. The source says:
Many agents are active in multiple myeloma (MM), but the majority of patients relapse. […] We further characterized clonogenic MM cells and stained cell lines using the Hoechst side population and Aldefluor assays. […] Furthermore, both the side population and Aldefluor assays were capable of identifying circulating clonotypic memory B cell populations within the peripheral blood of MM patients.
CD138^− precursors or CD138^+ plasma cells were isolated from the RPMI 8226 or NCI-H929 cell lines and treated with each of the two humanized monoclonal antibodies, rituximab or alemtuzumab, and in combination with human complement that strongly enhances their in vitro activity through complement dependent cytoxicity. Neither complement alone nor the monoclonal antibodies with or without complement affected the clonogenic growth of CD138^+ plasma cells that lack the target antigens (FIG. 8B; P>0.3 for all groups compared to the untreated control).
Although stem cells have been identified in an increasing number of human cancers, the clinical relevance and implications of these findings remain unclear. Standard response criteria used to measure the clinical efficacy of anti-cancer treatments primarily reflect changes in disease bulk and activity against mature tumor cells. Since cancer stem cells are a relatively low frequency population in most tumor types, the true inhibition of these cells is likely to be difficult to assess early following treatment, and a prolongation of disease remission would be required to establish such activity. The initial clinical responses induced by dexamethasone, lenalidomide, bortezomib and cyclophosphamide seen as decreased bone marrow plasmacytosis and monoclonal Ig levels in MM likely reflect the activity of these agents against mature MM plasma cells. […] It is well known that the anti-tumor activity of these agents is mediated in part by modulating the interaction between myeloma plasma cells and bone marrow stromal cells.
Our results complement a recent report describing the relative radioresistance of glioblastoma cancer stem cells compared to the differentiated cells that make up the bulk of the tumor mass. The stark biological differences between cancer stem cells and mature tumor cells is likely to be representative of many other malignancies as the clinical pattern of relapse following effective treatment can be seen in most human cancers. Therefore, therapeutic strategies that target the specific biology of cancer stem cells are likely required to prevent the continued production of mature tumor cells and produce sustained remissions. […] Therefore, optimal clinical strategies may require combining agents active against MM plasma cells to decrease tumor burden and alleviate symptoms with those that target MM cancer stem cells to prevent tumor regrowth and relapse.

Test [3] concerns CD138+ plasma cells from the RPMI 8226 and NCI-H929 MM cell lines. The test is described as follows: Clonogenic growth of CD138+ plasma cells isolated from MM cell lines. The conditions noted are these: FIGS. 10A and B, P<0.02 compared to the untreated control.

With `CC(C)C[C@H](NC(=O)[C@H](Cc1ccccc1)NC(=O)c1cnccn1)B(O)O` [bortezomib], in test [1], the “effect on clonogenic MM precursors from patients” value is listed as “not significantly affected”. Also, the “effect of anti-myeloma agents on CD138neg precursors / clonogenic MM progenitors” value in test [2] is “little effect; also recorded: similarly resistant”. The “clonogenic growth of CD138+ plasma cells” value in test [3] is “inhibited”.

Take `Nc1cccc2c1CN(C1CCC(=O)NC1=O)C2=O` (stereo not drawn) [lenalidomide]: in test [1], the “effect on clonogenic MM precursors from patients” value is listed as “not significantly affected”. The “effect of anti-myeloma agents on CD138neg precursors / clonogenic MM progenitors” value in test [2] is “similarly resistant”; in test [2] (listed as lenadilomide) it was “little effect”. In addition, the “clonogenic growth of CD138+ plasma cells” value in test [3] was “inhibited”.

Regarding “Rituximab: humanized monoclonal antibody that targets the B-cell antigen CD20”, in test [2], the “effect of antibodies on clonogenic MM cells” value is reported as “inhibit clonogenic MM cells”.

For the compound “alemtuzumab: humanized monoclonal antibody that targets the B-cell antigen CD52”, the “effect of antibodies on clonogenic MM cells” value in test [2] is “inhibit clonogenic MM cells”.

Source of the values: patent publication US8748113B2, “Methods for detecting and monitoring circulating cancer stem cells” (The Johns Hopkins University, priority 2007, dated 2014).
